Data on 5 compounds can be found in patent US20020049157A1, “Use of proteasome inhibitors for treating cancer, inflammation, autoimmune disease, graft rejection and septic shock” (priority 1998, published 2002).

The test system of data set [1] is Streptococcus cell wall-induced polyarthritis. The following applies: in vivo, cited from earlier work.
For a further data set, the system named is islet allograft. Nature of the data set: Mouse islet allograft in streptozocin-induced diabetes. It counts as in vivo. The following applies: 1 mg/kg/day i.p. for 16 days, then 0.5 mg/kg twice a week until day 60. The method, then:
C57BL/6 mice were treated with 250 mg/kg streptozocin and used as islet graft recipients when their blood glucose reached […] from BALB/c mice were isolated after collagenase digestion followed by Ficoll gradient separation. The islets were cultured overnight, and transplanted into the peritoneal cavity of the diabetic C57BL/6 recipients (500-600 islets/recipient). […] The blood glucose of the mice was measured daily and the means+SDs are shown. […] The mice were sacrificed on day 60, or when their blood glucose reached […].

The test system of data set [2] is BALB/c mouse spleen cells. The data set can be described thus: Anti-CD3-stimulated T cell proliferation (3H-thymidine). As to conditions: anti-CD3 50 ng/ml; pulsed 48 h, harvested 64 h. The class given is cell-based. The method, then:
The cells were pulsed with ^3H-thymidine at 48 h and harvested at 64 h after the culture.

The next data set deals with heart allograft. It counts as in vivo, mouse. The method, then: BALB/c mice (H-2^d) were used as heart donors and C57BL/6 mice (H-2^b) as recipients. […] Group 2 was given 0.65 mg/kg/day; group 3 was given 1.0 mg/kg/day for 4 days, and the dose was then reduced to 0.5 mg/kg/day for 12 days. The graft survival days, mean survival time (MST) and the p value (unpaired Student's test) compared with the control group was presented.
The applicant then used DPBA in treating allograft rejection in a mouse model. BALB/c (H-2^d) mice were used as donors and C57BL/6 (H-2^b) was used as recipients. Heterotropic heart transplantation was performed as described in our previous publication (Chen et al., 1996, supra). […] With this regimen, the MST is more than 22.8+9.8 days and has a tendency of being better than the first group.
Proteasome inhibitors when added at the late G1 phase can suppress proliferation and even induce apoptosis of the activated T cells. […] This possibility was tested in mouse heart transplantation model. The recipients were given no immunosuppressants for 72 h after the transplantation to allow the rejection response to proceed. […] This new drug will be especially useful in patients who are resistant to commonly used immunosuppressants such as CyA, azathioprine, and glucocorticoids.

Another data set deals with proteasome. As to conditions: for repression of chymotrypsin-like activity in the PBMC: RAPA at 10 nM.
For the next data set, the system named is Jurkat and Namalwa cells. The data set can be described thus: Apoptosis induction in Jurkat and Namalwa cells. It counts as cell-based.
The subject of data set [3] is Jurkat cells. The data set can be described thus: DNA fragmentation (DNA laddering) in Jurkat cells. The following applies: LAC 6 μM; caspase inhibitor 0.4 μM to 33.3 μM; 6 h. It counts as cell-based. The method, then:
Tonsillar T cells (A, B, and D) and Jurkat cells (C and E) were treated with LAC (10 μM for T cells and 6 μM for Jurkat cells). LAC was added at the beginning of the culture or 40 h after T cell activation as indicated. The cells were harvested at the time points as shown. They were evaluated for their viability with trypan blue exclusion (A, B, and C), and for their mode of cell death according to DNA fragmentation (D and E).
Jurkat cells were treated with LAC (6 μM) in the absence or presence of different concentrations of zVAD.fms (0.4 μM to 33.3 μM) for 6 h. The cells were harvested and their DNA was analyzed by a DNA fragmentation assay according to DNA laddering.
We next employed DNA laddering to study the mode of cell death caused by LAC, and the result of this experiment also reflected the degree of cell death after different treatments. […] After 24 h of LAC treatment, the ladders became less discrete, and this probably reflected further DNA breakdown.
The assay was performed according to a protocol described by Liu et al (Liu et al., 1997, Cell. 89:175) with some modifications. Briefly, 2-6 million cells were re-suspended in 50 μl PBS followed by 300 μl lysis buffer (100 mM Tris-HCl, pH 8.0, 5 mM EDTA, 0.2 M NaCl. 0.2% w/v SDS, and 0.2 mg/ml proteinase K). After overnight incubation at 37° C., 350 μl of 3M NaCl was added to the mixture and cell debris was removed by centrifugation at 13000 g for 20 min at room temperature. DNA in the supernatant was precipitated with an equal volume of 100% ethanol. The pellet was washed with cold 70% ethanol and then dissolved in 20 μl of TE containing 0.2 mg/ml RNase A. After incubation at 37° C. for 2 h, the DNA was resolved on 2% agarose gel and visualized with ethidium bromide staining.

The test system of data set [4] is Jurkat cells. The data set can be described thus: Respiration (O2 consumption) of Jurkat cells, oxygen electrode. The class given is cell-based. The following applies: LAC for 4 h; 100 μM Cytochrome C. From the text:
The function of Complex I of digitonin (Dig)-permeated Jurkat cells was blocked by rotenone (Rot), and the respiration was resumed by adding succinate (Suc), which provides electrons to Complex II directly and thus bypasses Complex I. The maximal respiration was achieved by adding CCCP (carbonyl cyanide m-chlorophenylhydrazone), which uncouples the oxidation and phosphorylation. The respiration could be blocked by antimycin A (Ant), which inhibits […]. Curves 1 and 6 represent positive controls of rat kidney mitochondria. Curves 2 and 5 represent normals untreated Jurkat cells. Curves 3 and 4 represent Jurkat cells treated with lactacystin (6 μM) for 2 h and 4 h, respectively.
Complex III in the respiration chain was blocked at Complex III antimycin (Ant), and the electron flow was resumed by addiind ascorbate (Asc) and TMPD (tetramethyl-p-phenyl-enediamine).
The assay system is identical to that described in FIG. 16. Jurkat cells were treated with LAC for 4 h (curve 3). The decoupling reagent used in this experiment to achieve maximal respiration is FCCP (carbonylcyanide-p-trifluoromethoxyphenylhydrazone).
The Jurkat Cells (JC) (30×10^6/ml) or rat kidney proximal tubules mitochondria (RKM) (0.5 mg of protein/ml) were incubated in 1 ml measuring chamber at 37° C. in a respiration buffer containing 200 mM sucrose, 5 mM MgCl2, 5 mM KH2PO4, and 30 mM HEPES-Tris (pH 7.5). During respiration experiments following substrates and inhibitors were used: 0.005% Digitonine (Dig); 10 mM Succinate (Suc); 1 mM Ascorbate (Asc); 0.4 mM tetramethyl-p- phenylenediamine (TMPD); 1 μM CCCP, 1 μM FCCP; 0.1 μM Rotenone (Rot); 50 nM Antimycin A (Anti); 1 mM KCN; 100 μM Cytochrome C (Cyt C). The respiration rate of the Jurkat Cells and mitochondria was measured polarographically with a Clarke oxygen electrode (Yellow Springs Instruments, Yellow Springs, Ohio, U.S.A.) using 1 ml thermojacketed chamber. Oxygen concentration was calibrated with air-saturated buffer using Hypoxanthine—Xanthine Oxidase—Catalase system (“chemical zero”). Oxygen consumption was continuously recorded using a “MacLab/8” (Analog Digital Instruments, U.S.A.) connected to a Macintosh SE computer and the MacLab Chart v.3.3.4 software. Rates of oxygen consumption are expressed as ng-atoms of oxygen/min.

Read-outs that look alike come from different tables or passages of the source. Peptide text beside a SMILES is read from it. * marks the point of attachment. Cbz = O=C(OCc1ccccc1)*; CH2F = FC*

Protocol for proteasome: Human PBMC were cultured in the absence or presence of 2 μg/ml PHA or 10 nM RAPA for 16 h-70 h as indicated. The cells were then harvested, and the chymotrypsin-like activity of whole cells lysates was assayed in the absence or presence of 20 μM proteasome inhibitor LAC. The data are presented as arbitrary units of fluorescence intensity per 20 μg lysate protein. The experiments were repeated three times and a representative one is shown. Samples are in duplicate and the mean±SD is shown. (A) Total chymotrypsin-like activity in the lysate of PBMC. (B) Lactacystin-inhibitable chymotrypsin-like activity in the lysate of 70 h PBMC. Nine micrograms of 20S proteasome were used as positive controls for the inhibitory effect of LAC at 10 μM and 20 μM. LAC was always added to the lysates during the proteinase assay 15 min before the addition of the substrate. The solid bars represent the activity in the presence of LAC. The net proteasome activities are calculated as the total activity minus the remaining activity after the LAC addition.
PBMC lysates were assayed for their proteinase activity at pH 8.2 which favors the proteasome activity, using a chymotrypsin substrate as a representative parameter.
PBMC were cultured with or without PHA (2 μg/ml) and RAPA (10 nM). After 16 h-70 h, the cells were harvested and sonicated in 300 μl PBS on ice for 40 sec. Twenty micrograms of protein per sample from the cleared lysates were supplemented to 100 μl with 0.1 M Tris buffer (pH 8.2). A proteasome-specific inhibitor lactacystin (Omura et al., 1991, supra; Fentenay et al., 1995, supra) was added at a final concentration of 10 nM in some samples as indicated. The samples were incubated on ice for 15 min, and fluorogenic chymotrypsin substrate sLLVY-MCA was then added at a final concentration of 10 nM. The 20S proteasome, which was prepared as previously described (Friguet et al, 1994, J. Biol. Chem. 269:21639), was used as a positive control in place of cell lysates. The samples were incubated at 37° C. for 15 min and the reaction was terminated by adding 4 μl 2.5 M HCl. The samples were then diluted to 2 ml with 0.1 M Tris pH8.2, and measured for their fluorescent intensity by a PTI fluorometer (Photo Technology International, South Brunswick, N.J.). The excitation wavelength was 380 nm, and the emission wavelength 440 mn.

What is called IC50 is the midpoint of a concentration-inhibition curve. High values mean a need for much substance, low ones inhibition by little substance. With `CC(C)C[C@H](NC(=O)[C@H](Cc1ccccc1)NC(=O)c1cnccn1)B(O)O` [DPBA, Pyz-Phe-boroLeu], the toxicity result in data set [1] (rat) is “without apparent toxicity”. In data set [1] (rats), the “inhibition of Streptococcus cell wall-induced polyarthritis” value was “effectively inhibit”. In the data set on islet allograft, the “duration of normal function of allogeneic islet graft” value is “more than 60 days”. The “glucose elevation consequent to islet rejection” value in the data set on islet allograft was “inhibits the glucose elevation consequent to islet rejection”. Besides, the IC50 in data set [2] is ~18 nM. Also, the “MST (mean survival time of heart allograft)” value in the data set on heart allograft (0.65 mg/kg/day i.p. for 16 days) is “more than 26.2+13 days”; in the data set with heart allograft (1 mg/kg/day i.p. day 1-4, then 0.5 mg/kg/day i.p. day 5-16), “more than 22.8+9.8 days”. Further, the “MST (ongoing rejection)” value in the data set on heart allograft (1 mg/kg/day i.p. for 4 days starting on day 3) was “more than 13.2+1.78 days”. The “appearance of the mice during or after the drug administration” value in the data set on heart allograft (mouse, in vivo, ip) was “appear healthy”. In addition, the “graft survival (ongoing rejection)” value in the data set with heart allograft (short-term treatment between day 3 and 6) is recorded as “more than 13 days”.

Regarding `CO[C@H]1C[C@@H]2CC[C@@H](C)[C@@](O)(O2)C(=O)C(=O)N2CCCC[C@H]2C(=O)O[C@H]([C@H](C)C[C@@H]2CC[C@@H](O)[C@H](OC)C2)CC(=O)[C@H](C)/C=C(\C)[C@@H](O)[C@@H](OC)C(=O)[C@H](C)C[C@H](C)/C=C/C=C/C=C/1C` [RAPA, Rapamycin], in the data set with proteasome (PHA plus RAPA-treated cells, 70 h, total minus activity remaining after LAC), the net proteasome activity is reported as 113.2×10^3 units/20 μg protein. Further, the “inhibition of the augmented proteasome activity in the PHA-treated PBMC” value with proteasome (RAPA 10 nM, 70 h) was 44.7%. In addition, the “inhibition of the total proteasome activity in the PHA-treated PBMC” value with proteasome (RAPA 10 nM, 70 h) was 33.6%. The “repression of chymotrypsin-like activity in the PBMC” value in the data set with proteasome (40 h after PHA stimulation) is 23.1%; in the data set with proteasome (70 h after PHA stimulation) it was 41.1%.

In the case of `CN[C@@H]1C[C@H]2O[C@@](C)([C@@H]1OC)n1c3ccccc3c3c4c(c5c6ccccc6n2c5c31)C(=O)NC4` [staurosporine], the induction of apoptosis entry in the data set on Jurkat and Namalwa cells is listed as “could equally induce apoptosis”.

For the compound `COC(=O)C[C@H](NC(=O)[C@H](C)NC(=O)[C@@H](NC(=O)OCc1ccccc1)C(C)C)C(=O)CF` [zVAD.fms, zVAD.fmk] (Cbz-Val-Ala-Asp(OMe)-CH2F), the “effect on LAC-induced DNA fragmentation” value in the data set on Jurkat cells [3] is on record as “inhibitory effect on DNA fragmentation that is concentration responsive”.

Turning to cytochrome c, in the data set with Jurkat cells [4], the “respiration of LAC-treated cells after adding exogenous cytochrome c” value was “the respiration resumed to a rate similar to that of untreated Jurkat cells and mitochondria”.
